Data from patent US5840690A, “Regulation of cell proliferation and differentation using peptides” (priority 1995, dated 1998).

Assays:
[1] = system: cultured human fibroblasts; details: cited from earlier work
[2] = system: cultured human keratinocytes; test: Keratinocyte culture: counts of total cells, basal cells and cornified envelopes; format: cell-based
Method: Keratinocytes were grown in culture as follows. NIH 3T3 cells were plated at 0.5×10^5 cells per 35-mm tissue-culture dish, and two days later were lethally irradiated with a cobalt-60 source (5000 rads). Keratinocytes were obtained from neonatal foreskin after overnight trypsinization at 4° C. and treatment with 0.02% EDTA. Keratinocytes were plated in 2 ml of serum-free medium per dish on the lethally irradiated 3T3 cells. Each experiment was performed on primary or secondary keratinocyte cultures obtained from different skin samples.
In addition, 1,25-(OH)2 D3 was tested, alone and in combination with PTH (7-34), and PTH (1-34) and PTH (7-34) were tested together.
Beginning at one week in culture, groups of triplicate plates of keratinocytes were incubated with the aforementioned compounds or vehicle alone. After one week of dosing, the medium was removed from each culture and centrifuged, and the pellet was resuspended for the counting of the desquamated floater cells. A hemacytometer was used to count the different cell types under a phase-contrast microscope. The attached cells were then trypsinized for 30-40 min with 0.1 EDTA and 0.1% trypsin and then neutralized with medium. The keratinocytes were pelleted and resuspended in a known volume of medium. Duplicate aliquots were taken for counting the basal (small, rounded) and squamous (larger, irregular-shaped, flattened) cells. The remaining cells were pelleted and treated with 10 mM Tris-HCl (pH 7.4) with 1% beta-mercaptoethanol and 1% sodium dodecyl sulfate (SDS) at room temperature for 10 min. Only cells with cornified envelopes were present after this treatment.
Each culture was thus evaluated for its total cell content, number of basal cells, and cornified envelopes, as described above.

[3] = system: tumor cells (for example, HL-60, U937, and M-1); details: tumor cells that possess a receptor for 1,25(OH)2 D3; cited from earlier work
[4] = system: cultured human keratinocytes; details: cited from earlier work
psoriasis = details: provided either orally or topically; cited from earlier work

Structure (SMILES): C=C1/C(=C\C=C2/CCC[C@]3(C)[C@@H]([C@H](C)CCCC(C)(C)O)CC[C@@H]23)C[C@@H](O)C[C@@H]1O [1,25(OH)2 D3, 1,25-dihydroxyvitamin D3]
- proliferation of cultured human fibroblasts [1]: inhibits the proliferation
- total number of cells and number of basal cells ([2]; 1,25(OH)2 D3 alone, one week of dosing, FIGS. 2-5): decreased in a dose-dependent manner
- total number of cornified envelopes, percent of control ([2]; compound alone, FIGS. 6 and 7): increased, in a dose-dependent manner
- differentiation of tumor cells [3]: induces them to differentiate
- proliferation of tumor cells [3]: inhibits their proliferation
- proliferation of cultured human keratinocytes [4]: inhibits the proliferation
- terminal differentiation of keratinocytes [4]: induces keratinocytes to terminally differentiate
- value in the treatment of psoriasis (psoriasis): of value in the treatment of psoriasis
